ChEMBL document CHEMBL3430912, “GSK Tres Cantos Anti-Kinetoplastid Screening (TCAKS) Data”

Legend:
Trypanosoma cruzi [1] = assay: GSK_TCAKS: pIC50 Trypanosoma cruzi Imaging: Amastigotes/Cell. […] Cells were then washed once with PBS before infection. T. cruzi trypomastigotes, collected at days 5 to 8 after infection from LLC-MK2 parasite infected cultures, were allowed to swim out for 4h at 37C from a centrifuged pellet (2,500 rpm/10 min/room temperature). Trypomastigotes were then collected and counted in a CASY Cell Counter. Trypomastigotes, in supplemented DMEM, were added to H9c2 cultures in a multiplicity of infection of 1 and incubated for 18 h. Cells were washed once with PBS before incubation of the infected H9c2 monolayer with trypsin (Life-Technologies) to detach cells from the flask. Cells were counted in a CASY Cell Counter using a 150 um capillary and their density set at 5 * 10^4 cells per mL in supplemented assay DMEM. Infected H9c2 were dispensed into 384-well poly-lysine coated assay plates at 50uL per well using a Multidrop Combi dispenser. After seeding them, the plates were incubated at 37C, 5% CO2 for 72h. Cultures were then fixed and stained by addition of 50 uL of a solution containing 8% formaldehyde and 4 uM DRAQ5 DNA dye (BioStatus, UK) per well. […] Five images were collected per well for reliable statistical analysis. Automated image analysis was performed with a script developed on Acapella High Content Imaging and Analysis Software (PerkinElmer). Output: number of amastigotes per cell as infection level measurement.; type: functional, organism-based, Rattus norvegicus; conditions: H9c2, 4 h
Leishmania donovani [2] = assay: (§1) GSK_TCAKS: pIC50 Leishmania donovani Imaging: Amastigotes/Macrophages. Assay plates (384-well) were prepared by adding 250nL of compound to each well. For single shot assay, the final compound concentration was 5 uM. […] Automated image analysis was performed with a script developed on Acapella High Content Imaging and Analysis Software (PerkinElmer). Output: Average number of amastigotes per macrophage cell were reported for each well.; type: functional, organism-based, Homo sapiens; conditions: THP-1
[3] = test system: Trypanosoma brucei brucei; assay: GSK_TCAKS: pIC50 Trypanosoma brucei viability assay using fluorescence intensity. Assay plates (1536-well) were prepared by dispensing 25nL of compound solution per well using an Echo acoustic dispenser (Labcyte).; type: functional, organism-based; conditions: Lister 427, 2 h
Leishmania donovani [4] = assay: as §1, with “THP-1 Host Macrophages.” for “Amastigotes/Macrophages.”, “THP-1” for “Average number of amastigotes per macrophage”, “cell count” for “cell”; type: functional, organism-based, Homo sapiens
[5] = test system: Trypanosoma brucei brucei; assay: GSK_TCAKS: pIC50 Trypanosoma brucei viability assay using luminiscence. Assay plates (1536-well) were prepared. T. brucei cultures were harvested and counted in a CASY cell counter. A parasite suspension was prepared at a final concentration of 5 * 10^4 cells/mL in complete HMI9 medium and 6uL was dispensed to all wells containing compounds using a Multidrop Combi dispenser. 6uL of HMI9 media with 0.4% DMSO were dispensed to control columns. Plates were incubated for 24 h at 37C, 5% CO2 then tempered for 10 min at room temperature. ATP content was quantified by adding 4 uL of CellTiter-Glo Reagent (Promega) according to the manufacturer's instructions. Luminescence was measured using a ViewLux.; type: functional, organism-based; conditions: Lister 427, CASY
Trypanosoma cruzi [6] = assay: (§2) GSK_TCAKS: pIC50 Trypanosoma cruzi Imaging: Infected Cells. […] Cells were then washed once with PBS before infection. T. cruzi trypomastigotes, collected at days 5 to 8 after infection from LLC-MK2 parasite infected cultures, were allowed to swim out for 4h at 37C from a centrifuged pellet (2,500 rpm/10 min/room temperature). Trypomastigotes were then collected and counted in a CASY Cell Counter. Trypomastigotes, in supplemented DMEM, were added to H9c2 cultures in a multiplicity of infection of 1 and incubated for 18 h. Cells were washed once with PBS before incubation of the infected H9c2 monolayer with trypsin (Life-Technologies) to detach cells from the flask. Cells were counted in a CASY Cell Counter using a 150 um capillary and their density set at 5 * 10^4 cells per mL in supplemented assay DMEM. Infected H9c2 were dispensed into 384-well poly-lysine coated assay plates at 50uL per well using a Multidrop Combi dispenser. After seeding them, the plates were incubated at 37C, 5% CO2 for 72h. Cultures were then fixed and stained by addition of 50 uL of a solution containing 8% formaldehyde and 4 uM DRAQ5 DNA dye (BioStatus, UK) per well. […] Five images were collected per well for reliable statistical analysis. Automated image analysis was performed with a script developed on Acapella High Content Imaging and Analysis Software (PerkinElmer). Output: percentage of infected cells per well as a second infection marker.; type: functional, organism-based, Rattus norvegicus; conditions: H9c2, 4 h
Leishmania donovani [7] = assay: as §1, with “Infected Macrophages.” for “Amastigotes/Macrophages.”, “Percent” for “Average number”, “infected” for “amastigotes per”, “cells” for “cell”; type: functional, organism-based, Homo sapiens; conditions: THP-1
Trypanosoma cruzi [8] = assay: as §2, with “H2C9” for “Trypanosoma cruzi”, “H9c2 Host Cardiomyocytes.” for “Infected Cells.”, “Number” for “percentage”, “H9c2 Host Cardiomyocytes nuclei to determine drug-related cytotoxicity.” for “infected cells per well as a second infection marker.”; type: functional, organism-based, Rattus norvegicus; conditions: H9c2, 4 h
Trypanosoma cruzi [9] = assay: GSK_TCAKS: pIC50 Trypanosoma cruzi viability assay using beta-GAL activity. This assay was run at single shot at 5uM compound concentration per well. The biological reagents consisted of NIH-3T3 host cells and trypomastigotes parasitic cells; both cell types were set to a 3.3 * 10^5 cells/mL dilution in assay DMEM by means of a CASY cell counter device using a 60um capillary. 6 uL of the mixture were dispensed per well (about 1 * 10^3 host-cells and 1 * 10^3 parasites) with a Multidrop Combi dispenser. […] In all wells, the percentage of DMSO never exceeded 0.5%. Plates incubated for four days at 37C, 5% CO2. The substrate used for the assay fluorescence intensity (FLINT) readout was resorufin-beta-D-galactopiranoside (Sigma-Aldrich) at 5uM per well. It was diluted in PBS supplemented with the soft detergent Igepal (Fluka).; type: functional, organism-based, Mus musculus; conditions: Tulahuen, NIH3T3
[10] = GSK_TCAKS: pIC50 HepG2 human cell line viability assay using luminiscence. […] Seeding density was checked to ensure that new mono-layers were not more than 50% confluent at the time of harvesting. Cell suspension was added to 500 mL of the same medium at a final density of 1.2 * 10^5 cells/mL. This cell suspension was dispensed (25 uL, 3000 cells per well) into 384-well clear-bottom plates using a Multidrop Combi dispenser. Prior to addition of the cell suspension, the screening compounds (250 nL) were pre-dispensed into the plates with an Echo liquid handler. Plates were incubated for 48 h at 37C, 5% CO2. After incubation, plates equilibrated at room temperature for 30 min before proceeding to develop the luminescent signal. The signal developer, CellTiter-Glo Reagent, was allowed to equilibrate at room temperature for 30 min and added to the plates (25uL per well) using a Multidrop Combi dispenser. Plates were left for 10 min at room temperature for stabilization and then read using a ViewLux.; type: toxicity, cell-based
Leishmania donovani [11] = assay: GSK_TCAKS: pIC50 Leishmania donovani viability assay using fluorescence intensity. Assay plates (1536-well) were prepared by adding 30nL per well of compound. For single shot assay, the final compound concentration was 5uM. […] Briefly, eGFP LdBOB axenic amastigotes were harvested, fixed and counted in a CASY cell counter (Roche-Applied Science). A final concentration of 1.5 * 10^5 cells per well were prepared in amastigote media containing 500 U/mL penicillin/streptomycin (Invitrogen) and 6uL was dispensed to each experimental well using a Multidrop Combi dispenser (Thermo Scientific). 6uL of assay media was dispensed to control columns used as reference for 100% compound response. Following incubation for 72 h at 37C, 5% CO2, 2 uL of resazurin was added to each well at a final concentration of 0.5 mM in phosphate buffered saline (PBS) with IGEPAL (Sigma-Aldrich), 0.05% (v/v).; type: functional, organism-based
[12] = target: Sterol 14-alpha demethylase (Trypanosoma cruzi (strain CL Brener), UniProt Q7Z1V1); assay: GSK_TCAKS: pIC50 CYP51 from Trypanosoma cruzi.; type: functional
Chain of Sterol 14-alpha demethylase (Q7Z1V1 whole entry): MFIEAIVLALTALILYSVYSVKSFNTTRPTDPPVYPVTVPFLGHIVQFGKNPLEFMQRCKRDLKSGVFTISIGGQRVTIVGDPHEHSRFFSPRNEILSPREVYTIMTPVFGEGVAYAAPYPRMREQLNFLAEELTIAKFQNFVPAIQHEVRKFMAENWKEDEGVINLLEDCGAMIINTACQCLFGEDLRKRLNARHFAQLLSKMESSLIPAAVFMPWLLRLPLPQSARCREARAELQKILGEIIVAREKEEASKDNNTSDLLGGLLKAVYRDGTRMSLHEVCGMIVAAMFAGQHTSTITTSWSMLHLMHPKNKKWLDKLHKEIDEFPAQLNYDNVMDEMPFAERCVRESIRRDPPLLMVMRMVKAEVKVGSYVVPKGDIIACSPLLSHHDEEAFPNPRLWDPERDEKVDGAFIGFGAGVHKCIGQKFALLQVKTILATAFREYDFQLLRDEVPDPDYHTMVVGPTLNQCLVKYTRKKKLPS

| Compound | IC50 (Trypanosoma cruzi [1]) | IC50 (Leishmania donovani [2]) | IC50 [3] | IC50 (Leishmania donovani [4]) | IC50 [5] | IC50 (Trypanosoma cruzi [6]) | IC50 (Leishmania donovani [7]) | IC50 (Trypanosoma cruzi [8]) | IC50 (Trypanosoma cruzi [9]) | IC50 at 48 h [10] | IC50 (Leishmania donovani [11]) | IC50 [12] |
| --- | --- | --- | --- | --- | --- | --- | --- | --- | --- | --- | --- | --- |
| COc1ccc2ncc(=O)n(CCN3CCC(NCc4ccc(-c5cccs5)cc4)CC3)c2n1 | 0.158 µM | 1.26 µM | 3.16 µM | 10 µM | 6.31 µM | 1.58 µM | 3.16 µM | 7.94 µM | 2 µM | 12.6 µM | 1.58 µM | 25.1 µM |
| O=C1NCCn2ccc(Nc3nc(N[C@H]4CC[C@H](O)CC4)ncc3Cl)c21 | 3.16 µM | 0.631 µM | 0.501 µM | 0.398 µM | 0.631 µM | 20 µM | 1 µM | 0.398 µM | 6.31 µM | > 100 µM | 2.51 µM | > 100 µM |
| N#Cc1cccc(CNc2ccc(-c3cnn(CC4CC4)c(=O)c3C#N)cc2)c1 | 5.01 µM | 0.251 µM | 10 µM | 6.31 µM | 12.6 µM | 7.94 µM | 1.26 µM | > 50.1 µM | 5.01 µM | > 100 µM | 25.1 µM | 6.31 µM |
| COc1cc(OC)cc(C(=O)N[C@@H](CC(C)C)C(=O)NC2(C#N)CC2)c1 | > 50.1 µM | > 50.1 µM | 0.501 µM | > 50.1 µM | 0.0631 µM | > 50.1 µM | > 50.1 µM | > 50.1 µM | > 50.1 µM | > 100 µM | > 50.1 µM | > 100 µM |
| Cc1ccc(S(C)(=O)=O)cc1Nc1nccc(-c2sc(N)nc2-c2ccccc2)n1 | 0.0794 µM | 2.51 µM | 0.794 µM | 20 µM | 1.58 µM | 0.126 µM | 5.01 µM | 5.01 µM | 0.126 µM | 31.6 µM | 3.16 µM | > 100 µM |
| CC(C)C[C@H](NC(=O)c1ccc(-c2ccccc2)o1)C(=O)NC1(C#N)CC1 | 25.1 µM | 15.8 µM | 0.1 µM | > 50.1 µM | 0.0501 µM | > 50.1 µM | > 50.1 µM | > 50.1 µM | 31.6 µM | > 100 µM | > 50.1 µM | > 100 µM |
| CCOC(=O)c1noc(N)c1-c1ccccc1 | > 50.1 µM | > 50.1 µM | 0.631 µM | > 50.1 µM | 0.631 µM | > 50.1 µM | > 50.1 µM | > 50.1 µM | > 50.1 µM | > 100 µM | > 50.1 µM | > 100 µM |
| CC(C)C[C@H](NC(=O)c1csc(-c2cccs2)n1)C(=O)NC1(C#N)CC1 | 20 µM | > 50.1 µM | 0.158 µM | > 50.1 µM | 0.1 µM | > 50.1 µM | > 50.1 µM | > 50.1 µM | 25.1 µM | > 100 µM | 5.01 µM | > 100 µM |
| CN(C)S(=O)(=O)c1ccc(-c2cnc(N)c(-c3nc4ccc(F)cc4[nH]3)c2)cc1 | > 50.1 µM | 0.631 µM | 0.398 µM | 3.98 µM | 1 µM | > 50.1 µM | 1.58 µM | 1.26 µM | 1.26 µM | > 100 µM | 2.51 µM | 39.8 µM |
| Nc1cc(-c2ccc3ncnc(N4CCOCC4)c3c2)cnc1N | 1.58 µM | 1.26 µM | 0.0501 µM | > 50.1 µM | 0.158 µM | 5.01 µM | 10 µM | 3.16 µM | 1.58 µM | > 100 µM | 3.98 µM | 79.4 µM |
| NC(=O)c1cc(NC(=O)c2ccccc2COc2ccccc2)ccc1Cl | 25.1 µM | 1.58 µM | 15.8 µM | 15.8 µM | > 39.8 µM | 31.6 µM | 3.16 µM | > 50.1 µM | 39.8 µM | > 100 µM | 7.94 µM | 79.4 µM |
